From patent EP4725941A1, “ARYLAMIDE DERIVATIVE HAVING ANTITUMOR ACTIVITY” (priority 2020, dated 2021)
pIC50: −log10 of the molar value. Read-outs that look alike come from different tables or passages of the source.

How the values were obtained:
[1] = Human liver microsome stability; assay type: in vitro ADME; settings: human liver microsomes, pH 7.4
Calu-6 = assay: Cell proliferation-inhibiting activity (ATP in viable cells, CellTiter-Glo), Calu-6; assay type: cell-based, human; settings: read-out: Calu-6 IC50
BRAF = target: T1, BRAF (Homo sapiens, UniProt P15056); assay: BRAF-inhibiting activity, time-resolved fluorescence-fluorescence resonance energy transfer assay; assay type: biochemical
T1 construct: purchased Eurofins Genomics KK; (BRAF); Thermo Fisher Scientific Inc. (MEK1)
Procedure: The BRAF-inhibiting activity of the compounds listed in Table 3 below was evaluated by the time-resolved fluorescence-fluorescence resonance energy transfer assay as described below.

NCI-H2122 = assay: Cell proliferation-inhibiting activity (ATP in viable cells, CellTiter-Glo), NCI-H2122; assay type: cell-based, human; settings: read-out: NCI-H2122 IC50
MEK1 = target: T2, MEK1 (Homo sapiens, UniProt Q02750); assay: MEK1-inhibiting activity, fluorescent polarization method (CRAF/MEK1/ERK2 cascade, IMAP); assay type: biochemical; settings: Table 3; read-out: MEK1 IC50
T2 construct: purchased Thermo Fisher Scientific Inc. (MEK1, CRAF); Carna Biosciences, Inc. (ERK2)
Procedure: The MEK1-inhibiting activity of the compounds listed in Table 3 below were evaluated by the fluorescent polarization method as described below.

A549 = assay: Cell proliferation-inhibiting activity (ATP in viable cells, CellTiter-Glo), A549; assay type: cell-based, human; settings: A549, 96 h, read-out: A549 IC50
[2] = human lung cancer cells, 4 days
[3] = NCI-H2122, 96 h, human lung cancer cells, 4 days

T2 sequence (Q02750 whole entry): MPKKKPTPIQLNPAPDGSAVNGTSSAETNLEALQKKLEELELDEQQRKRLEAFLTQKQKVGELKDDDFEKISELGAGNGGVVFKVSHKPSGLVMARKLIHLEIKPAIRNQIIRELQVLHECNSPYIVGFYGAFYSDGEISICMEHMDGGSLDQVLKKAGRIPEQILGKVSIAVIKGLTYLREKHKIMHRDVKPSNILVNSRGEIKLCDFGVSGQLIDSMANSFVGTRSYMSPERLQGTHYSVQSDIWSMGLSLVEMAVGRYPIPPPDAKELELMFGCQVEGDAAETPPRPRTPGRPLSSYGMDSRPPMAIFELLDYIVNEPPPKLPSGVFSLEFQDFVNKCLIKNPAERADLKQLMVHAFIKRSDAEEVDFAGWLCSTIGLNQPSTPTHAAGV
T1 sequence (P15056 417-766 limits assumed): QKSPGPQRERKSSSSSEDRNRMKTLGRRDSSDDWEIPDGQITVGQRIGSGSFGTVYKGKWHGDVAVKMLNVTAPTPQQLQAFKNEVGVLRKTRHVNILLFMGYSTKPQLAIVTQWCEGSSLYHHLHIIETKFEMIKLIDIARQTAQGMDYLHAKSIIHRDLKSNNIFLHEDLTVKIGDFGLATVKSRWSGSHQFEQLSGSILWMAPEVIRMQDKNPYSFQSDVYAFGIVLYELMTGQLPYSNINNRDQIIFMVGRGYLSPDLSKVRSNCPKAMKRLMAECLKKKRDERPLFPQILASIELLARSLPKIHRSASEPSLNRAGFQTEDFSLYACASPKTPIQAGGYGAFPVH

Row | SMILES | microsomal CLint at 0.99 µM [1] [µL/min/mg] | pIC50 (Calu-6; Homo sapiens, Calu-6, 96 h) | pIC50 (BRAF; Table 3; read-out: BRAF IC50) | pIC50 (NCI-H2122; Homo sapiens, NCI-H2122, 96 h) | pIC50 (MEK1) | pIC50 (A549; [2]) | pIC50 (BRAF; read-out: BRAF IC50; Table 3) | pIC50 (NCI-H2122; [3]) | pIC50 (Calu-6; [2]) | pIC50 (NCI-H2122; [2]) | pIC50 (A549; Homo sapiens) | pIC50 (Calu-6; Calu-6, 96 h, human lung cancer cells, 4 days)
1 | CC1(NS(=O)(=O)Nc2nccc(Cc3cc(C(N)=O)c(Nc4ccc(C5CC5)cc4F)c(F)c3F)c2F)CCC1 [Compound A-46, 2-(4-Cyclopropyl-2-fluoroanilino)-3,4-difluoro-5-[[3-fluoro-2-[(1-methylcyclobutyl)sulfamoylamino]pyridin-4-yl]methyl]benzamide] | 23 | 6.44 | 7.52 | 7.51 | 6.09 | – | – | – | – | – | – | –
2 | CNS(=O)(=O)Nc1nccc(Cc2cc(C(N)=O)c(Nc3ccc(I)cc3C)c(F)c2F)c1F [Compound C-5, 3,4-Difluoro-5-[[3-fluoro-2-(methylsulfamoylamino)pyridin-4-yl]methyl]-2-(4-iodo-2-methylanilino)benzamide] | 29 | – | – | – | 7.25 | 7.66 | 8.52 | 8.40 | – | – | – | –
3 | COCCNS(=O)(=O)Nc1cccc(Cc2cc(C(N)=O)c(Nc3ccc(I)cc3F)c(F)c2F)c1F [Compound D-1, 3,4-Difluoro-2-(2-fluoro-4-iodoanilino)-5-[[2-fluoro-3-(2-methoxyethylsulfamoylamino)phenyl]methyl]benzamide] | 25 | – | – | – | 7.02 | 8.05 | 9.00 | 8.30 | – | – | – | –
4 | COCC(C)(C)NS(=O)(=O)Nc1cccc(Cc2cc(C(N)=O)c(Nc3ccc(I)cc3F)c(F)c2F)c1F [Compound D-2, 3,4-Difluoro-2-(2-fluoro-4-iodoanilino)-5-[[2-fluoro-3-[(1-methoxy-2-methylpropan-2-yl)sulfamoylamino]phenyl]methyl]benzamide] | 103 | – | – | – | 6.62 | 8.05 | 8.52 | 8.30 | – | – | – | –
5 | NC(=O)c1cc(Cc2cccc(NS(=O)(=O)NC[C@H]3CCCO3)c2F)c(F)c(F)c1Nc1ccc(I)cc1F [Compound D-3, 3,4-Difluoro-2-(2-fluoro-4-iodoanilino)-5-[[2-fluoro-3-[[(2R)-oxolan-2-yl]methylsulfamoylamino]phenyl]methyl]benzamide] | 68 | – | – | – | 6.89 | 7.59 | 9.00 | 7.92 | – | – | – | –
6 | CCS(=O)(=O)Nc1cccc(Cc2cc(C(=O)NC3CC3)c(Nc3ccc(I)cc3F)c(F)c2F)c1F [Compound D-8, N-Cyclopropyl-5-[[3-(ethylsulfonylamino)-2-fluorophenyl]methyl]-3,4-difluoro-2-(2-fluoro-4-iodoanilino)benzamide] | 20 | – | – | – | 6.79 | 7.18 | 7.68 | 8.10 | – | – | – | –
7 | NC(=O)c1cc(Cc2cccc(NS(N)(=O)=O)c2F)c(F)c(F)c1Nc1ccc(I)cc1F [Compound E-8, 3,4-Difluoro-2-(2-fluoro-4-iodoanilino)-5-[[2-fluoro-3-(sulfamoylamino)phenyl]methyl]benzamide] | 1 | – | – | – | 6.86 | 8.52 | 8.70 | 8.70 | – | – | – | –
8 | NC(=O)c1cc(Cc2cccc(NS(=O)(=O)CCCF)c2F)c(F)c(F)c1Nc1ccc(I)cc1F [Compound E-15, 3,4-Difluoro-5-[[2-fluoro-3-(3-fluoropropylsulfonylamino)phenyl]methyl]-2-(2-fluoro-4-iodoanilino)benzamide] | 21 | – | – | – | 6.54 | 7.70 | 8.40 | 8.15 | – | – | – | –
9 | CCCS(=O)(=O)Nc1cccc(Cc2cc(C(N)=O)c(Nc3ccc(I)cc3F)c(F)c2F)c1F [Compound E-18, 3,4-Difluoro-2-(2-fluoro-4-iodoanilino)-5-[[2-fluoro-3-(propylsulfonylamino)phenyl]methyl]benzamide] | 29 | – | – | – | 6.44 | 8.15 | 8.30 | 8.10 | – | – | – | –
10 | NC(=O)c1cc(Cc2cccc(NS(=O)(=O)C3CCC3)c2F)c(F)c(F)c1Nc1ccc(I)cc1F [Compound E-20, 5-[[3-(Cyclobutylsulfonylamino)-2-fluorophenyl]methyl]-3,4-difluoro-2-(2-fluoro-4-iodoanilino)benzamide] | 18 | – | – | – | 6.33 | 7.43 | 7.89 | 7.96 | – | – | – | –
11 | NC(=O)c1cc(Cc2cccc(NS(=O)(=O)C3COC3)c2F)c(F)c(F)c1Nc1ccc(I)cc1F [Compound E-21] | 13 | – | – | – | 6.72 | 7.52 | 7.62 | 7.85 | – | – | – | –
12 | CS(=O)(=O)Nc1cccc(Cc2cc(C(=O)NC3CC3)c(Nc3ccc(I)cc3F)c(F)c2F)c1F [Compound E-25, N-Cyclopropyl-3,4-difluoro-2-(2-fluoro-4-iodoanilino)-5-[[2-fluoro-3-(methanesulfonamide)phenyl]methyl]benzamide] | – | – | 7.96 | – | 6.55 | – | – | – | 7.55 | 8.15 | – | –
13 | CNS(=O)(=O)Nc1cccc(Cc2cc(C(N)=O)c(Nc3ccc(I)cc3F)c(F)c2F)c1 [Compound F-1, 3,4-Difluoro-2-(2-fluoro-4-iodoanilino)-5-[[3-(methylsulfamoylamino)phenyl]methyl]benzamide] | 10 | – | – | – | 6.61 | 8.15 | 8.30 | 8.52 | – | – | – | –
14 | COCCS(=O)(=O)Nc1cccc(Cc2cc(C(N)=O)c(Nc3ccc(I)cc3F)c(F)c2F)c1 [Compound F-3, 3,4-Difluoro-2-(2-fluoro-4-iodoanilino)-5-[[3-(2-methoxyethylsulfonylamino)phenyl]methyl]benzamide] | 28 | – | – | – | 6.42 | 8.10 | 8.30 | 7.62 | – | – | – | –
15 | CNS(=O)(=O)Nc1nccc(Cc2cc(C(=O)NOC)c(Nc3ccc(Cl)cc3F)c(F)c2F)c1F [Compound G-4, 2-(4-Chloro-2-fluoroanilino)-3,4-difluoro-5-[[3-fluoro-2-(methylsulfamoylamino)pyridin-4-yl]methyl]-N-methoxybenzamide] | 26 | – | – | – | 7.28 | 7.55 | 8.40 | 7.92 | – | – | – | –
16 | CNS(=O)(=O)Nc1nccc(Cc2cc(C(N)=O)c(Nc3ccc4sccc4c3)c(F)c2F)c1F [Compound H-2, 2-(1-Benzothiophen-5-ylamino)-3,4-difluoro-5-[[3-fluoro-2-(methylsulfamoylamino)pyridin-4-yl]methyl]benzamide] | 77 | – | – | – | 7.31 | 7.51 | 8.70 | 7.80 | – | – | – | –
17 | CNS(=O)(=O)Nc1cccc(Cc2cc(C(N)=O)c(Nc3ccc(I)cc3F)c(F)c2F)n1 [Compound H-5, 3,4-Difluoro-2-(2-fluoro-4-iodoanilino)-5-[[6-(methylsulfamoylamino)pyridin-2-yl]methyl]benzamide] | 26 | – | – | – | 6.94 | 8.22 | 8.70 | 8.40 | – | – | – | –
18 | CCNS(=O)(=O)Nc1nccc(Cc2cc(C(N)=O)c(Nc3ccc(I)cc3F)cc2F)c1F [Compound I-2, 5-[[2-(Ethylsulfamoylamino)-3-fluoropyridin-4-yl]methyl]-4-fluoro-2-(2-fluoro-4-iodoanilino)benzamide] | 12 | – | – | – | 7.33 | 7.60 | 8.52 | 7.96 | – | – | – | –
19 | CCS(=O)(=O)Nc1cccc(Cc2cc(C(=O)NC3CC3)c(Nc3ccc(I)cc3F)n(C)c2=O)c1F [Compound K-8, N-Cyclopropyl-5-[[3-(ethylsulfonylamino)-2-fluorophenyl]methyl]-2-(2-fluoro-4-iodoanilino)-1-methyl-6-oxopyridine-3-carboxamide] | 103 | – | – | – | 6.68 | 7.17 | 7.85 | 7.54 | – | – | – | –
20 | CNS(=O)(=O)Nc1nccc(Cn2cc(C(N)=O)c(Nc3ccc(I)cc3F)c(F)c2=O)c1F [Compound N-1, 5-Fluoro-4-(2-fluoro-4-iodoanilino)-1-[[3-fluoro-2-(methylsulfamoylamino)pyridin-4-yl]methyl]-6-oxopyridine-3-carboxamide] | 8 | – | – | – | 9.00 | 7.70 | 8.70 | 7.55 | – | – | – | –
21 | CNS(=O)(=O)Nc1nccc(Cn2cc(C(N)=O)c(Nc3ccc(SC)cc3F)c(F)c2=O)c1F [Compound N-3, 5-Fluoro-1-[[3-fluoro-2-(methylsulfamoylamino)pyridin-4-yl]methyl]-4-(2-fluoro-4-methylsulfanylanilino)-6-oxopyridine-3-carboxamide] | 19 | – | 8.30 | 6.51 | 8.40 | – | – | – | – | – | 6.32 | –
22 | CNS(=O)(=O)Nc1nccc(Cn2cc(C(N)=O)c(Nc3ccc(I)cc3F)c(C)c2=O)c1F [Compound P-1, 4-(2-Fluoro-4-iodoanilino)-1-[[3-fluoro-2-(methylsulfamoylamino)pyridin-4-yl]methyl]-5-methyl-6-oxopyridine-3-carboxamide] | 15 | – | – | – | 8.70 | – | – | 8.22 | – | – | – | 7.66
